Results on nine compounds are retold here after paper PMC11227536, “Modulation of the Meisenheimer complex metabolism of nitro-benzothiazinones by targeted C-6 substitution” (Communications Chemistry, 2024).

In brackets after ≈: the same amount, converted by molar mass.

One data set concerns K-562. The experiment in a line: Proliferation assay. In kind it is cell-based. Particulars: Homo sapiens, K562; 72 h, n = 4. The protocol:
(§1) Supplementary Method 5: Biological Assays […]
(§2) 2. Proliferation and cytotoxicity assay
(§3) Cells and culture conditions
(§4) The following cell lines and media were used:
(§5) Cell line Cell culture medium
(§6) Cells were grown in the appropriate cell culture medium supplemented with 10 mL/L ultraglutamine 1 […]
(§7) heat inactivated fetal bovine serum (GIBCO Life Technologies 10270-106) at 37 °C in 5% CO 2 in high density polyethylene flasks (NUNC 156340).
(§8) To decide if the compounds have an antiproliferative and/or a cytotoxic effect on human cells, cell death and retardation of cell proliferation were assessed. Under our experimental conditions, the optical density measured from the CellTiter-Blue® reagent and methylene blue assay is proportional to the […]
(§9) The test substances were dissolved in DMSO and further diluted in the cell culture medium. The adherent cells were harvested at the logarithmic growth phase after soft trypsinization using 0.25% trypsin in PBS containing 0.02% EDTA (Biochrom KG L2163). For each experiment, approximately 10,000 cells were seeded with 0.1 mL culture medium per well of the 96-well microplates (HUVEC: flat bottomed NUNC 167008, K-562: round bottomed NUNC 163320). To test the antiproliferative […]
(§10) effect of test compounds on HUVEC and K-562, the cells were incubated for 72 hours in plates prepared with control and different dilutions of test substances. […]
(§11) of proliferation compared to the untreated control. […]
(§12) Cells were incubated with dilutions of the test substances in microplates for 72 hours at 37 °C in a humidified atmosphere and 5% CO 2. […]
cytotoxicity and the inhibition of cell proliferation. The number of viable cells was determined subsequent to staining with CellTiter-Blue® reagent or methylene blue.
K-562 cells: The influence of test substances on cell proliferation of K-562 was determined via the CellTiter-Blue® assay (PROMEGA). Briefly, viable cells are able to reduce the indicator dye resazurin […]
dye. Thus, formation of resorufin was followed by measuring absorption at 570 nm and subtracting absorption measured at 600 nm. […]
(§13) General remarks: Signals from the methylene blue and CellTiter-Blue® reagent are proportional to the number of viable cells. A repeat determination has been conducted in all experiments, four replicates were assayed. The calculations of the different values of GI 50 and CC 50 were performed with the software

Details of data set [1]: method as in PMID 28097740. Particulars: preclinical studies ref 12; cited from earlier work.
Data set [2] has as its system Mycobacterium vaccae (JMRC:STI:10670). The experiment in a line: MIC determination. The data set is classed as cell-based. Particulars: for MIC: Mycolicibacterium vaccae, n = 1; for Selectivity index: ratio between CC50 (HeLa) and MIC M. vaccae. The protocol: (§14) Supplementary Method 5: Biological Assays
(§15) Minimal inhibitory concentrations were determined against Mycobacterium vaccae (JMRC:STI:10670) and Mycobacterium smegmatis (JMRC:STH:00056). M. vaccae and M. smegmatis cultures were grown 48 h at 32 °C in a medium consisting of glycerol (1%), beef extract (0.5%), peptone from casein (0.5%) and sodium chloride (0.3%). Serial dilutions of the DMSO test item solutions (1 mg∙mL -1) were prepared at 100 µL scale in 96 well plates in Mueller Hinton broth starting at 200 µg∙mL -1 (highest) to cover a final concentration range of 100 to 0.05 µg∙mL -1. Each plate was equipped with a series of DMSO and ciprofloxacin dilutions as quality controls. 96 well plates were inoculated with 100 µL diluted culture (Mueller Hinton bullion) at a final concentration of 5∙10 5 and incubated at 37 °C for 42 h. Growth/no growth was visually inspected.
as §2, §3, §4, §5, §6, §7, §8
The test substances were dissolved in DMSO and further diluted in the cell culture medium. The adherent cells were harvested at the logarithmic growth phase after soft trypsinization using 0.25% trypsin in PBS containing 0.02% EDTA (Biochrom KG L2163). For each experiment, approximately 10,000 cells were seeded with 0.1 mL culture medium per well of the 96-well microplates (HUVEC: flat bottomed NUNC 167008, K-562: round bottomed NUNC 163320). To test the antiproliferative

The next data set has as its system HUVEC. The experiment in a line: Proliferation assay. In kind it is cell-based. To be noted: Homo sapiens, 72 h, n = 4. The protocol: as §1, §2, §3, §4, §5, §6, §7, §8, §9, §10, §11, §12
(§16) cytotoxicity and the inhibition of cell proliferation. The number of viable cells was determined subsequent to staining with CellTiter-Blue® reagent or methylene blue. […]
(§17) HUVEC and HeLa cells: The adherent HUVEC and HeLa cells were fixed by glutaraldehyde (MERCK […]
(§18) gently washing, the stain was eluted by adding 0.2 mL of hydrochloric acid (0.33 M) to each well. The optical densities were measured at 660 nm (methylene blue) in SUNRISE microplate reader (TECAN).
as §13

Data set [3] has as its system Mycobacterium smegmatis (JMRC:STH:00056). The experiment in a line: MIC determination. The data set is classed as cell-based. To be noted: Mycolicibacterium smegmatis; n = 1. The protocol: as §14
as §15, with “inspected. […]” for “inspected.”

The next data set can be described thus: Cytotoxicity assay. The data set is classed as cell-based. To be noted: human, n = 4. The protocol:
as §1, §2, §3, §4, §5, §6, §7, §8
The test substances were dissolved in DMSO and further diluted in the cell culture medium. The adherent cells were harvested at the logarithmic growth phase after soft trypsinization using 0.25% trypsin in PBS containing 0.02% EDTA (Biochrom KG L2163). For each experiment, approximately 10,000 cells were seeded with 0.1 mL culture medium per well of the 96-well microplates (HUVEC: flat bottomed NUNC 167008, K-562: round bottomed NUNC 163320). […]
For the cytotoxicity assay, HeLa cells were preincubated for 48 hours without the test substances. To test the cytotoxic effect on HeLa, dilutions of the compounds were carried out carefully on the subconfluent monolayers of HeLa cells after the preincubation time. After incubation time, the cytolytic effect of compounds was analysed in comparison to the negative control. The 50% cytotoxic concentration (CC 50 ) was defined as the test compound concentration required for destruction of the cell monolayer by 50% compared to untreated control.
as §12, §16, §17, §18, §13

As usually defined, the GI50 is the concentration giving 50% growth inhibition. A lower GI50 goes with more potent growth inhibition. What is called MIC is the lowest concentration found to suppress growth. A high value points to a less susceptible organism. Usually CC50 stands for the concentration giving 50% cytotoxicity. A higher CC50 goes with better tolerance by the cells. Consider `C[C@H]1COC2(CCN(c3nc(=O)c4cc(C(F)(F)F)cc([N+](=O)[O-])c4s3)CC2)O1` [Compound 1, reference compound], for which the GI50 in the data set with K-562 and with HUVEC was above 116 µM throughout. In addition, the “HMC formation in vivo (in words)” value in data set [1] is on record as “significant hydride-Meisenheimer complex (HMC) formation in vivo”. Moreover, the MIC in data set [2] turned out to be 0.004 µM (≈ 0.00173 µg/mL); in data set [3] it was 0.058 µM (≈ 0.025 µg/mL). The Selectivity index in data set [2] is reported as above 31248. For the same compound, the cytotoxic concentration (CC50) at 72 h in “Cytotoxicity assay” was above 116 µM.

Turning to `CCOC(=O)c1cc([N+](=O)[O-])c2sc(N3CCC4(CC3)OC[C@H](C)O4)nc(=O)c2c1` [Compound 6b], the GI50 was 50.7 ± 6.9 µM with K-562 and 49.1 ± 1.1 µM in the data set on HUVEC. In addition, the results for the MIC in data set [2] and in data set [3] were 1.79 µM (≈ 0.779 µg/mL) and 57.4 µM (≈ 25 µg/mL), respectively. Further, the Selectivity index in data set [2] was above 64. Also, the CC50 at 72 h in “Cytotoxicity assay” is above 115 µM.

Regarding `C[C@H]1COC2(CCN(c3nc(=O)c4cc(C(=O)OCCO)cc([N+](=O)[O-])c4s3)CC2)O1` [Compound 6d], the GI50 in the data set with K-562 is 17.9 ± 1.1 µM; in the data set on HUVEC, 73.3 ± 4.2 µM. Moreover, the results for the MIC in data set [2] and in data set [3] were 13.8 µM (≈ 6.23 µg/mL) and 55.4 µM (≈ 25 µg/mL), respectively. In data set [2], the Selectivity index is on record as above 8. In addition, the CC50 at 72 h in the data set “Cytotoxicity assay” was above 111 µM.

Consider `C[C@H]1COC2(CCN(c3nc(=O)c4cc(C(=O)OCCI)cc([N+](=O)[O-])c4s3)CC2)O1` [Compound 6e], for which the GI50 with K-562 worked out at 27.6 ± 0.9 µM; with HUVEC, 30.8 ± 0.5 µM. Besides, the minimum inhibitory concentration (MIC) in data set [2] turned out to be 2.78 µM (≈ 1.56 µg/mL); in data set [3], 44.5 µM (≈ 25 µg/mL). Moreover, the Selectivity index in data set [2] came to 28. Also, the CC50 at 72 h in “Cytotoxicity assay” turned out to be 78.2 ± 1.4 µM.

With `C[C@H]1COC2(CCN(c3nc(=O)c4cc(C(=O)OCCOC(=O)c5cc([N+](=O)[O-])c6sc(N7CCC8(CC7)OC[C@H](C)O8)nc(=O)c6c5)cc([N+](=O)[O-])c4s3)CC2)O1` [Compound 6f], the GI50 in the data set on K-562 and in the data set with HUVEC was above 59 µM throughout. For the same compound, the figures for the minimum inhibitory concentration (MIC) in data set [2] and in data set [3] were 14.9 µM (≈ 12.5 µg/mL) and 119 µM (≈ 100 µg/mL), respectively. In addition, the Selectivity index in data set [2] is above 4. Besides, the CC50 at 72 h in “Cytotoxicity assay” was above 59.4 µM.

Consider `C[C@H]1COC2(CCN(c3nc(=O)c4cc(C(N)=O)cc([N+](=O)[O-])c4s3)CC2)O1` [Compound 7a], for which the GI50 with K-562 and in the data set with HUVEC was above 123 µM each time. Also, the MIC in data set [2] stood at 61.5 µM (≈ 25 µg/mL); in data set [3], 123 µM (≈ 50 µg/mL). Besides, the Selectivity index in data set [2] is on record as above 2. The compound further had a CC50 at 72 h in “Cytotoxicity assay” above 123 µM.

As for `CNC(=O)c1cc([N+](=O)[O-])c2sc(N3CCC4(CC3)OC[C@H](C)O4)nc(=O)c2c1` [Compound 7b], the GI50 in the data set on K-562 and with HUVEC was above 119 µM each time. Also, the MIC in data set [2] is 59.5 µM (≈ 25 µg/mL); in data set [3] it was 119 µM (≈ 50 µg/mL). The Selectivity index in data set [2] is given as above 2. This compound also registered a CC50 at 72 h in the data set “Cytotoxicity assay” above 119 µM.

As for `C[C@H]1COC2(CCN(c3nc(=O)c4cc(C(=O)NCCO)cc([N+](=O)[O-])c4s3)CC2)O1` [Compound 7d], the GI50 in the data set with K-562 and in the data set with HUVEC was above 111 µM throughout. The MIC came to 27.7 µM (≈ 12.5 µg/mL) in data set [2] and 111 µM (≈ 50 µg/mL) in data set [3]. Moreover, the Selectivity index in data set [2] was above 4. The same compound yielded a CC50 at 72 h in “Cytotoxicity assay” above 111 µM.

In the case of `C[C@H]1COC2(CCN(c3nc(=O)c4cc(C5=NCCO5)cc([N+](=O)[O-])c4s3)CC2)O1` [Compound 7e], the GI50 in the data set with K-562 and in the data set on HUVEC was above 116 µM throughout. The values for the MIC in data set [2] and in data set [3] were 14.5 µM (≈ 6.27 µg/mL) and 28.9 µM (≈ 12.5 µg/mL), respectively. In addition, in data set [2], the Selectivity index is above 8. The compound also displayed a 50% cytotoxic concentration (CC50) at 72 h in the data set “Cytotoxicity assay” above 116 µM.
